# Measured values reported in patent publication US9210928B2, “Plant development control composition” (Syngenta Crop Protection, LLC, priority 2008, dated 2015).
# What was measured:
# whole Arabidopsis plants = assay: Shoot branching in whole Arabidopsis plants grown in agar; format: in vivo; conditions: applied to whole plants
# Method: Branching phenotypes of Arabidopsis plants grown in agar media for 45 days supplemented with inhibitor D6. Images are shown: (a) Col-0 (WT) without inhibitor; (b) max3-9 mutant without inhibitor; (c) Col-0 with 100 μM D6. The numbers (d) of rosette branches were quantified. Error bars represent standard error of the mean, n=6 to 12.
# Stimulation of shoot branching in whole Arabidopsis plants—Inhibitors were also applied to Arabidopsis whole plants grown under sterile conditions in agar. […] Inhibitor treated plants were intermediate (mean of approximately 2 branches) and so partially mimicked max3-9 (FIG. 6d).
# LeCCD1a = LeCCD1a (Solanum lycopersicum, UniProt Q6E4P5); assay: In vitro LeCCD1a enzyme assay (recombinant cell-free extract, colourimetric, apo-8′-carotenal substrate); format: biochemical, tomato (Solanum lycopersicum); conditions: for inhibition at 100 µM: read-out: LeCCD1a (9,10/9′,10′) Inhibition @ 100 μM (%)
# Method: In vitro LeCCD1a enzyme assay—We over-expressed LeCCD1a in E. coli, as a GST-fusion protein (supplemental methods). The in vitro assay of LeCCD1a was based on reported methods (37), and was carried out in a 200 μl total volume in a 96-well microtitre plate, with the signal detected at 485 nm. To prepare substrate solution for each assay, 5 μl of 4% (w/v in ethanol) apo-8′-carotenal (Sigma) was mixed with 25 μl of 4% (w/v in ethanol) β-octylglucoside (Sigma), the ethanol was then evaporated under nitrogen, and the residue dissolved in 150 μl PBS buffer containing 10 mM sodium ascorbate by incubation at 20° C. for 30 min. 50 μl of cell-free extract containing recombinant LeCCD1a was added, and the reactions monitored over 30 min at 20° C.
# For the production of cell-free extracts of LeCCD1a and LeNCED1, cultures were grown to an OD of 0.6 at 37° C., then isopropyl β-D-1-thiogalactopyranoside (IPTG) was added to 0.2 mM and the cultures grown overnight at 20° C. The cells (200 ml cultures) were harvested by centrifugation (5000 rpm, 10 min) and the pellet re-suspended in 4 ml PBS, 0.1% Triton-X 100. Lysozyme was added to a final concentration of 25 μg ml^−1 and the solution incubated at room temperature for 15 min before sonication (3×30 s at 18Ω) on ice. The lysate was then centrifuged (13000 rpm, 15 min, 4° C.) and the supernatant used for the assay.
# Specificity of inhibition in vitro for tomato genes LeNCED1 and LeCCD1a—In order to screen the inhibitors against enzymes which cleave carotenoids at the 9,10 position, we used the recombinant tomato LeCCD1a protein (44), because this type of enzyme can be studied using an in vitro colourimetric assay with β-apo-8′-carotenal as substrate (37). To establish the specificity of the inhibitors, they were also tested against the tomato LeNCED1 recombinant protein which cleaves 9-cis carotenoids at the 11,12 position (45). For this enzyme, the cleavage reaction was monitored by C18 reverse phase HPLC, using 9′-cis-neoxanthin as substrate.
# LeCCD1a, sequence (Q6E4P5 1-545): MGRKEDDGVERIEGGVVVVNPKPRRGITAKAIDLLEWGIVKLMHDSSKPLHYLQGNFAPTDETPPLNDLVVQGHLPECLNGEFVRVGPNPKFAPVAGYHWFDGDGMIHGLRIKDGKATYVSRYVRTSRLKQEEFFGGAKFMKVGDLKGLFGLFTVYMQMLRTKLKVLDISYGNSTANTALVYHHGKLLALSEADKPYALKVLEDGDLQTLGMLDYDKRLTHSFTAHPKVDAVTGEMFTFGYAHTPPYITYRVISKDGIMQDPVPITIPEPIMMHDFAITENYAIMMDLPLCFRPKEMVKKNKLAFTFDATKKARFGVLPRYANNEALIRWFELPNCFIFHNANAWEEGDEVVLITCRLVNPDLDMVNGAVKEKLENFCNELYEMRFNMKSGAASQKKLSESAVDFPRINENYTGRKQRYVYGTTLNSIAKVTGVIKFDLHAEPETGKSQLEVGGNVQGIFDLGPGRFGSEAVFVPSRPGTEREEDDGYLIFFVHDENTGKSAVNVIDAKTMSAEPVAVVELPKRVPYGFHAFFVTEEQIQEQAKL
Compound,unintended effects on whole Arabidopsis plants (whole Arabidopsis plants),inhibition of LeCCD1 in vitro (in words) (LeCCD1a),inhibition at 100 µM (LeCCD1a) [%],"LeCCD1a (9,10/9′,10′) Inhibition @ 100 μM (%) (LeCCD1a; 100 μM inhibitor, E. coli cell extract with recombinant CCD)"
"COc1ccc(C(=O)N(O)Cc2ccccc2)cc1 [Compound F1, N-benzyl-4-methoxybenzoyl hydroxamic acid]",caused bleaching of leaves,high levels of inhibition of LeCCD1,> 95,–
"COc1ccc(C(=O)N(O)Cc2ccccc2)cc1OC [Compound F3, N-benzyl-3,4-dimethoxybenzoyl hydroxamic acid]",–,–,–,50
"COc1ccc(C(=O)N(O)Cc2ccc(F)cc2)cc1 [Compound F2, N-(4-fluorobenzyl)-4-methoxybenzoyl hydroxamic acid]",caused bleaching of leaves,high levels of inhibition of LeCCD1,> 95,–
